ChEMBL document CHEMBL1201862, “PubChem BioAssay data set” (2004)
Calls of active or inactive are those of the source. Rule as the data show it, for most assays here: actives have a measured EC50 and inactives only a lower limit.

Experiments:
[1] = inhibitors of firefly luciferase expression or activity, dose response, H4 neuroglioma cells, luminescence (AID 1990); assay type: functional, cell-based
[2] = Luminescence Cell-Based Dose Response HTS to Identify Inhibitors of 5'UTR Stem-Loop Driven Prion Protein mRNA Translation in H4 Neuroglioblastoma Cells. [Related pubchem assays: 1827 (Project Summary), 1813 (Primary HTS)]; assay type: functional
[3] = inhibitors of SNCA 5'UTR-driven reporter translation, confirmation, H4 neuroglioma cells, luminescence (AID 1988); assay type: functional, cell-based
[4] = target: T1, Heat shock factor protein 1 (Mus musculus, UniProt P38532); assay: inhibition of MG132-induced HSE-luciferase signal, confirmation, cell-based, NIH3T3, luminescence, dose retest (AID 2382); assay type: functional;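 also: NIH3T3 fibroblasts with HSF1-driven luciferase reporter stressed by proteasome inhibitor MG132; luminescence from HSF1-driven luciferase expression after 8 hours of MG132 stress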
T1 sequence (P38532 whole entry): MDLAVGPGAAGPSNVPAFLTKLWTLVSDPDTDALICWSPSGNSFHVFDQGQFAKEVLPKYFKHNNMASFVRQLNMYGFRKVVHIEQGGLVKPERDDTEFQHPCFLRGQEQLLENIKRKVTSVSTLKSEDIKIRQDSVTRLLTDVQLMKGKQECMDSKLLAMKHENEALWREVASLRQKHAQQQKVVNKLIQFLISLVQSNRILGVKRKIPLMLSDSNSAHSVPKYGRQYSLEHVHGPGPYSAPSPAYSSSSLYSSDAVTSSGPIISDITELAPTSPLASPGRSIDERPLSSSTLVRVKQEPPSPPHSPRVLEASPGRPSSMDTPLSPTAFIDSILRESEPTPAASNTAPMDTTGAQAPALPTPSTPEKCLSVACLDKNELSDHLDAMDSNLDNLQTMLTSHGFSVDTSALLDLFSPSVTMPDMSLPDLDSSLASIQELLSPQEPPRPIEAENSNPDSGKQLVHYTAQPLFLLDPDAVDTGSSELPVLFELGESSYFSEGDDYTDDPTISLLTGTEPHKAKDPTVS

Protein RecA = target: T2, Protein RecA (Mycobacterium tuberculosis, UniProt P9WHJ3); assay: Fluorescence Cell-Free Homogeneous Dose Retest to Identify Inhibitors of RecA-Intein Splicing Activity. [Related pubchem assays (depositor defined):AID2097, AID2223, AID489010, AID492950]; assay type: functional
T2 sequence (P9WHJ3 whole entry): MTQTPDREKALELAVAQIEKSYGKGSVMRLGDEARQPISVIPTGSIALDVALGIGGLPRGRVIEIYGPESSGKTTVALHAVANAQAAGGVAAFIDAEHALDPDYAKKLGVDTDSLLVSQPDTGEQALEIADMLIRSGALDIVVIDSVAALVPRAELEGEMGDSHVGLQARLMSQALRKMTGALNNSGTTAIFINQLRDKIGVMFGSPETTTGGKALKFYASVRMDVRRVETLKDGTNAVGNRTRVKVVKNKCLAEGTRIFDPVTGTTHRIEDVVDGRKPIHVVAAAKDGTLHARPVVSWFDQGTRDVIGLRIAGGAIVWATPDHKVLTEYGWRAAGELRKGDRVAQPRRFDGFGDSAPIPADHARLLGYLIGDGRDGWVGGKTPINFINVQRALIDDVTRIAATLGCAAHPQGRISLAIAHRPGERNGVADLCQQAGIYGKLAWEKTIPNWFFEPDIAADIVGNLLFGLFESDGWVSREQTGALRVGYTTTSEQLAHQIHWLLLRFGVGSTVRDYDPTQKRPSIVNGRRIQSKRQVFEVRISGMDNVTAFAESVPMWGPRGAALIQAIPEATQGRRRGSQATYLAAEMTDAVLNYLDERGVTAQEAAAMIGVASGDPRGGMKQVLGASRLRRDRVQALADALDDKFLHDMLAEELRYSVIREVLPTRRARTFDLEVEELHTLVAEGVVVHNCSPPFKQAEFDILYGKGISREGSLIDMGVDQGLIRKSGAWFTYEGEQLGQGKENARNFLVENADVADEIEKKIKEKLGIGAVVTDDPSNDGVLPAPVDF

[5] = target: T3, Replicative DNA helicase DnaB (Mycobacterium tuberculosis, UniProt P9WMR3); assay: DnaB intein splicing inhibitors, dose response, biochemical, cell-free fluorescence (AID 449749); assay type: functional
T3 sequence (P9WMR3 whole entry): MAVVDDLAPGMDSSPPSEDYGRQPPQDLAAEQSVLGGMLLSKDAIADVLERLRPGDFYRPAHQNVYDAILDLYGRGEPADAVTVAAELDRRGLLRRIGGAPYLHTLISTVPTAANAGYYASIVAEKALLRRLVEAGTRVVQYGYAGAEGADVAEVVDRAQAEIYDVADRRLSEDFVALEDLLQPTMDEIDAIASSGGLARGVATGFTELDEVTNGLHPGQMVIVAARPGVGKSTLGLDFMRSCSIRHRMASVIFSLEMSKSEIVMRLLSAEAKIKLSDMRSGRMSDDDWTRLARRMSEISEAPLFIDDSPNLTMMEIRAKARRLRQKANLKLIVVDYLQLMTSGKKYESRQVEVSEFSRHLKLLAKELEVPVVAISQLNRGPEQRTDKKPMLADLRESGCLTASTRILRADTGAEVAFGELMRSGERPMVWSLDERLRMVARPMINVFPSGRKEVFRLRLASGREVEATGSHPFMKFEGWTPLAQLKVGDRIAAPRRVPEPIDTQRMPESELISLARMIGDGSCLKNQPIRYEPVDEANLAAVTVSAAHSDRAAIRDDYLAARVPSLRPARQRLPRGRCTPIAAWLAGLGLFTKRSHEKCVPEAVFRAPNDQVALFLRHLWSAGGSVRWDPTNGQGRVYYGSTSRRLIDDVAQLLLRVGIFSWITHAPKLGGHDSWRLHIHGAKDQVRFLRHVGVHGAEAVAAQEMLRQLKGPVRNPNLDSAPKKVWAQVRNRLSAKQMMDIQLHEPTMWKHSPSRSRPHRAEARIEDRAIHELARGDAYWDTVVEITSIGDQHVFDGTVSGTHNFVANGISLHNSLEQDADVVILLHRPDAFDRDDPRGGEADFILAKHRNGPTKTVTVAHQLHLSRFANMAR

Protein skinhead-1 = target: T4, Protein skinhead-1 (Caenorhabditis elegans, UniProt P34707); assay type: functional
T4 sequence (P34707 whole entry): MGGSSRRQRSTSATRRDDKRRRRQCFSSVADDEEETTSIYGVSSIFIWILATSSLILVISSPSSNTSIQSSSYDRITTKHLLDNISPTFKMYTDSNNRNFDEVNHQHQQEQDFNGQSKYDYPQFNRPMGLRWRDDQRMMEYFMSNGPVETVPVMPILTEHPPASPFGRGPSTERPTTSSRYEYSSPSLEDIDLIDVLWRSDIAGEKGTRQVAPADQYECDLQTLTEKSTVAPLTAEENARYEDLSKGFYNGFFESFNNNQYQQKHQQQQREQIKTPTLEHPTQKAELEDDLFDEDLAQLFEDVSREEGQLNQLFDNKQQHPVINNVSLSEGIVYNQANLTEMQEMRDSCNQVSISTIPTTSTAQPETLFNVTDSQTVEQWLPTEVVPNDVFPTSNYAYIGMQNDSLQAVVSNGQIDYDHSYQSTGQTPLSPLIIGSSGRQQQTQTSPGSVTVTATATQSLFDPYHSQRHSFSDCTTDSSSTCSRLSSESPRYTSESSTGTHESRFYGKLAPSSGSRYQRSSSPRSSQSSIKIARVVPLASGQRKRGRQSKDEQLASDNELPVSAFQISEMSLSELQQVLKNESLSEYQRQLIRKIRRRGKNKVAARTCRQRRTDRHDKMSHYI

[6] = Luminescence Cell-Based Dose Response HTS to Identify Activators of Luciferase Translation or Activity in H4 […] Cells. [Related pubchem assays: 1829 (Project Summary), 1814 (Primary HTS)]; assay type: functional
H4 = assay: Luminescence Cell-Based Dose Response HTS to Identify Activators of 5'UTR Stem-Loop Driven Prion Protein mRNA Translation in H4 Neuroglioblastoma Cells. [Related pubchem assays: 1829 (Project Summary), 1814 (Primary HTS)]; assay type: functional; conditions: Homo sapiens

For Cc1cc(Oc2ccc3ccccc3c2)nc(SCC(=O)c2ccccc2)n1, the EC50 [1] was > 120 µM (not active), the EC50 [2] was 15 µM (active) and the EC50 [3] was 26.9 µM (active).

For CCOc1ccc(CNS(=O)(=O)c2c(C)nc3scc(C)n3c2=O)cc1OC, the EC50 [4] was > 195 µM (not active).

For O=C(Nc1ccc(N2CCN(c3ccc(O)cc3)CC2)cc1)Oc1ccccc1, the EC50 [4] was > 195 µM (not active).

For COc1cc(-c2onc3ccc(Br)cc23)cc(OC)c1OC, the EC50 [1] was > 120 µM (not active), the EC50 [2] was 10.8 µM (active) and the EC50 [3] was 4.29 µM (active).

With CCOc1ccccc1-n1c(CN2CCN(C(=O)c3ccco3)CC2)nc2ccccc2c1=O the EC50 [1] was 8.25 µM (active), the EC50 [2] was 8.43 µM (active) and the EC50 [3] was 7.97 µM (active).

In the case of Cc1n[nH]c2c1C(c1ccco1)C(C#N)=C(N)O2 (configuration not stated), the EC50 (Protein RecA) is reported as 4.28 µM (active) and the AC50 [5] is reported as 54.1 µM (active).

With CC(C)CCNC(=O)c1cnn2c(C(F)(F)F)cc(-c3ccco3)nc12 the IC50 (Protein skinhead-1) was > 100 µM (inactive).

With O=C(Nc1ccccc1-c1nc2ccccc2s1)c1cccnc1 the EC50 [4] was > 195 µM (not active).

For N#CC1=C(N)Oc2[nH]nc(-c3cccs3)c2C1c1ccoc1 (configuration not stated), the EC50 (Protein RecA) was 7.09 µM (active) and the AC50 [5] was 10.4 µM (active).

For O=C(c1cnn2c(C(F)F)cc(-c3ccccc3)nc12)N1CCCc2ccccc21, the EC50 [1] was 19.2 µM (active), the EC50 [2] was 23.8 µM (active) and the EC50 [3] was 26.3 µM (active).

For CC1CCc2nc(NC(=O)C3COc4ccccc4O3)sc2C1 (configuration not stated), the EC50 [1] was 5.93 µM (inconclusive), the EC50 [2] was 10 µM (active) and the EC50 [3] was 5.45 µM (active).

With COc1ccc(CNC(=O)C2CCN(S(=O)(=O)c3ccc4c(c3)C(C)(C)C(=O)N4C)CC2)cc1 the EC50 [4] was 55.2 µM (active).

In the case of Brc1ccc(-c2nc(-c3ccncc3)no2)o1, the IC50 (Protein skinhead-1) is reported as 86.1 µM (inactive).

In the case of COc1ccc(C=O)cc1CN1CCCN(Cc2ccc(Cl)cc2)S1(=O)=O, the EC50 [4] is reported as > 195 µM (not active).

In the case of Cc1ccccc1Cn1nnc2c1C(=O)c1ccccc1C2=O, the EC50 [1] is reported as > 120 µM (not active), the EC50 [2] is reported as > 120 µM (not active) and the EC50 [3] is reported as > 60 µM (not active).

In the case of O=S(=O)(O)Oc1c[nH]c2ccccc12, the EC50 (Protein RecA) is reported as 0.155 µM (active) and the AC50 [5] is reported as 1.34 µM (active).

In the case of CCCC(=O)Nc1cccc(NC(=O)c2cccc([N+](=O)[O-])c2C)c1, the EC50 [4] is reported as 20.5 µM (active).

With O=C(Nc1nc(C(F)(F)F)n[nH]1)c1cccs1 the EC50 (Protein RecA) was 9.84 µM (active) and the AC50 [5] was 3.65 µM (active).

For COc1cc(C2NC(=O)NC(C)=C2C(=O)OCC2CCCO2)ccc1O (configuration not stated), the EC50 [4] was > 195 µM (not active).

With O=C(c1ccccc1)N1C(=O)C(c2ccccc2)Oc2ccccc21 (configuration not stated) the EC50 [1] was > 120 µM (not active), the EC50 [2] was > 120 µM (not active) and the EC50 [3] was > 120 µM (not active).

With COCCCNC(=O)COc1ccc2oc3c(c2c1)CCCC3 the IC50 (Protein skinhead-1) was > 100 µM (inactive).

For O=S(=O)(c1cc(Cl)ccc1Cl)N1CCC2(CC1)OCCO2, the EC50 [4] was > 195 µM (not active).

With O=C(OCc1ccccc1)c1ccc2c(c1)-c1ccccc1C2=O the EC50 [6] was 14.8 µM (active) and the EC50 (H4) was 11.1 µM (active).

In the case of Cc1ccc(Cl)c(N/C=C/C(=O)c2ccccc2)c1, the IC50 (Protein skinhead-1) is reported as 27.9 µM (active).

For CC(Oc1ccc(Cl)cc1)c1ccnn1S(C)(=O)=O (configuration not stated), the IC50 (Protein skinhead-1) was > 100 µM (inactive).

In the case of CCC(=O)CCC(=O)c1ccc2ccccc2c1, the EC50 [4] is reported as > 195 µM (not active).

In the case of O=c1c([N+](=O)[O-])c(N2CCOCC2)c2ccccc2n1Cc1ccccc1, the EC50 [1] is reported as 19 µM (active), the EC50 [2] is reported as > 120 µM (not active) and the EC50 [3] is reported as > 120 µM (not active).

For Cc1ccc(-c2nnc(-c3cccs3)o2)cc1, the IC50 (Protein skinhead-1) was 35.5 µM (active).

With N#Cc1cc([N+](=O)[O-])ccc1NC(=O)COC(=O)CCC1CCCCC1 the EC50 (Protein RecA) was 3.31 µM (active) and the AC50 [5] was 1.72 µM (active).

With O=C(c1cnn2c(C(F)(F)F)cc(-c3ccco3)nc12)N1CCCc2ccccc21 the IC50 (Protein skinhead-1) was > 100 µM (inactive).

With CS(=O)(=O)NNC(=O)CN1C(=O)C2C3C=CC(C3)C2C1=O (configuration not stated) the EC50 [1] was > 120 µM (not active), the EC50 [2] was 22.1 µM (active) and the EC50 [3] was > 120 µM (not active).

In the case of Cn1c(SCC(=O)NCC2CCCO2)ncc(C(=O)Nc2ccc(F)cc2)c1=O (configuration not stated), the EC50 (Protein RecA) is reported as 0.315 µM (active) and the AC50 [5] is reported as 0.51 µM (active).

With O=S(=O)(Nc1c(O)ccc2ccccc12)c1ccc(F)cc1 the EC50 (Protein RecA) was 1.16 µM (active) and the AC50 [5] was 12.2 µM (active).

For CC(=O)/C(=N\Nc1ccc(Cl)cc1)Sc1nnc(-c2ccccc2)n1-c1ccccc1, the EC50 [4] was > 195 µM (not active).

With Cc1cc(=O)n(-c2ccccc2Cl)[nH]1 the EC50 (Protein RecA) was 5.4 µM (active) and the AC50 [5] was 10.7 µM (active).

With C/C(CC(=O)Nc1ccccn1)=N\NC(=O)c1cccc(C)c1 the EC50 (Protein RecA) was 7.75 µM (active) and the AC50 [5] was 20.1 µM (active).

With COc1ccc(CCN2C(=O)CS/C2=N\NC(=O)c2ccc(C(C)(C)C)cc2)cc1OC the EC50 [1] was 22.4 µM (active), the EC50 [2] was 21.1 µM (active) and the EC50 [3] was > 120 µM (not active).
